In patent US20250313653A1, “GUEST/HOST INCLUSION COMPLEXES CONTAINING S-NITROSOGLUTATHIONE AND METHODS OF USE THEREOF” (VIRGINIA COMMONWEALTH UNIVERSITY, priority 2022, published 2025):
≈ marks a conversion by molar mass, not a printed value.

Assays:
[1] = GSNO thermal decomposition via UV-Vis absorption spectroscopy; type: physicochemical
Method: (§1) GSNO was synthesized by nitrosation of reduced L-glutathione in acidified nitrite as previously reported.^52 After collecting GSNO precipitates and washing them using cold water and acetone, GSNO powder was vacuum dried for 4 h and stored at −20° C. GSNO powders were dissolved in phosphate buffer (PB) containing the same mole of Na2HPO4 before the pH adjustment. For example, the formal concentration of Na2HPO4 is 0.1 M when the GSNO concentration is 0.1 M. One hundred μM EDTA was always added to each solution before the solution pH was finally adjusted to 7.4 via NaOH. EDTA is a chelating agent to mask Cu^2+, a S-nitrosothiol catalyst that may exist in solvents and chemicals as an impurity.^53 For solutions with reactive agents, BSA, ascorbic acid, or cysteine was added before the pH adjustment. To prepare GSNO-CD solutions, appropriate amounts of CD powders were dissolved into the GSNO solutions prior to the pH adjustment.
(§2) Aqueous GSNO solutions were contained in 1.5 mL disposable polystyrene cuvettes. The cuvette was caped and further sealed with parafilm. The concentrations of GSNO during storage at 37° C. or 25° C. in the dark were monitored by a UV-vis spectrophotometer (Go Direct® Fluorescence/UV-VIS Spectrophotometer) at a wavelength of 545 nm. A 4 W LED white light was used as the light source for the photodecomposition experiment at room temperature. The distance between the light source and the cuvettes was approximately 10 cm. All GSNO decomposition experiments were triplicated, and the GSNO concentration was expressed as mean±standard deviation.

[2] = GSNO decomposition in the presence of biologically relevant reactants (cysteine, L-ascorbic acid, BSA); type: physicochemical; conditions: for GSNO left after 24 h of storage: 0.1 M GSNO with 20 mg/mL BSA, 37° C.
Method: as §1, §2

[3] = GSNO photodecomposition under LED white light; type: physicochemical; conditions: presence of αCD, 4-h experiment under LED white light, room temperature
Method: as §2

[4] = Stability of GSNO in agar hydrogel (colour fading); type: physicochemical; conditions: 1% agar hydrogel, 0.1 M GSNO, 37° C.
Method: Two grams of agar were dissolved in 100 mL of 0.1 M phosphate buffer at pH 7.4 at 80° C. for 3 h with stirring. GSNO solutions at 0.2 M with or without 0.2 M αCD in 0.1 M phosphate buffer at pH 7.4 were prepared separately. Then, 0.5 mL GSNO solution and 0.5 mL dissolved agar were mixed and put into an ice bath to facilitate gelation.

S. aureus [5] = experiment: Prevention of extraluminal biofilm on silicone catheters; type: cell-based; conditions: 3-day experiments, 0.1 M GSNO without or with 0.1 M αCD as lock solution, 37° C.
Method: (§3) Both biofilm and planktonic bacteria were quantified to evaluate the antibacterial activities of the proposed method. LB medium (25 mg/mL) was used to culture all bacterial strains overnight before performing the antibacterial tests. Segments of medical-grade silicone tubes were all autoclaved. Lock solutions were freshly prepared using the sterilized buffer and filtered through a 0.22 m PES syringe filter. The biofilms on the silicone surface were dip-rinsed 5 times in PBS and detached by 1-min vertexing, 1-min sonication (20% power of a 150 W probe sonifier, Branson Ultrasonics), and another 1-min vertexing for plate counting. When quantifying the planktonic bacteria, the suspension was homogenized by 1-min vertexing. […] After plate incubation at 37° C. overnight, colony-forming units (CFU) of bacteria were counted and converted to CFU/cm^2 for biofilm quantification and CFU/mL for planktonic bacteria quantification. […] In our case, the limit of detection (LOD) is 400 CFU/cm^2 for biofilm quantification and 200 CFU/mL for quantification of planktonic bacteria. […] The statistical significance between groups was determined using a student's t-test.
The overnight S. aureus culture was diluted by LB (0.25 mg/mL) medium to approximately 10^3 CFU/mL. […] The viable bacteria on the outer surface were counted following the treatment.

S. aureus [6] = experiment: Prevention of intraluminal catheter infection (planktonic and biofilm); type: cell-based; conditions: 3-day experiments
Method: as §3
The 0.1 M αCD, 0.1 M GSNO, and 0.1 M GSNO+0.1 M αCD solutions were prepared in LB broth buffered with 0.1 M Na2HPO4 and adjusted to pH 7.4. […] Viable biofilm and planktonic cells were evaluated by plate counting. […]

[7] = at low pH; cited from earlier work
[8] = administrated in humans, dogs, and rats at appropriate doses; cited from earlier work
[9] = 0.1 M GSNO in 0.1 M PB, pH 7.4, 37° C., with 0.15 M αCD and 0.1 M γCD
[10] = 0.1 M GSNO in 0.1 M PB, pH 7.4, 37° C., without CD
[11] = 0.1 M GSNO with 0.15 M αCD and 0.1 M γCD versus GSNO only

## N[C@@H](CCC(=O)N[C@@H](CSN=O)C(=O)NCC(=O)O)C(=O)O [GSNO, S-nitrosoglutathione]
[1]; 0.05 M GSNO and 0.15 M αCD in 0.05 M PB, pH 7.4, 37° C.
  GSNO lifetime: 17 days
[1]; 0.05 M GSNO in 0.05 M PB, pH 7.4, 37° C., without CDs
  GSNO lifetime: 7 days
[1]; 0.1 M GSNO in 0.1 M PB, pH 7.4, 37° C., with 0.1 M αCD
  GSNO decay in the first 24 h: 39%
[1]; [9]
  GSNO lifetime: 15 days
  first-day decay of GSNO: 22%
[1]; 0.1 M GSNO in 0.1 M PB, pH 7.4, 37° C., with an equal mole (0.1 M) of αCD
  GSNO lifetime: 11 days
[1]; [10]
  GSNO degraded within the first 24 h: 66%
  GSNO lifetime: 6 days
[1]; [11]
  improvement of GSNO lifetime: 2.5 times
  improvement of first-day decay: 3 times
[1]; in the presence of CDs at 37° C.
  lifetime of 0.1 M GSNO: up to 15 days
[1]; phosphate buffer, room temperature, 0.05 M GSNO in 0.05 M PB pH 7.4, with 0.15 M αCD
  half-life at 0.05 M: ~20 days
[1]; room temperature, with 0.15 M αCD
  half-life of GSNO relative to only GSNO: 4 times
[2]; 0.1 M GSNO in 0.1 M PB pH 7.4 with 10 mM cysteine or L-ascorbic acid, without αCD
  GSNO lifetime: 2 to 3 days
[2]; 0.1 M GSNO with 10 mM cysteine or L-ascorbic acid, addition of 0.1 M αCD, 4-day experiments
  effect on GSNO decomposition rate: remarkably reduces the decomposition rate
[2]; control group without αCD
  GSNO left after 24 h of storage: 21%
[2]; in the presence of 0.1 M αCD
  GSNO left after 24 h of storage: 41%
[3]
  decrease in the decomposition rate of GSNO: ~2 fold
[4]; with an equal mole of αCD
  time the reddish color of GSNO lasts: more than 6 days
[4]; without αCD
  time in which the reddish color of GSNO fades: less than 2 days
S. aureus [5]
  reduction of bacterial biofilm on the outer catheter surface compared to control solutions: 70%
S. aureus [6]
  reduction of bacterial biofilm on silicone rubber: 99.2%
S. aureus [6]; 0.1 M GSNO without or with 0.1 M αCD, 37° C.
  reduction of growth of planktonic S. aureus compared to the phosphate buffer: 5 orders of magnitude
[7]
  aqueous solubility: 75 mM (≈ 25.2 mg/mL)
[8]
  toxicities in in vivo studies: did not reveal any toxicities
